{"source": "patent US11299489B1", "about": "“Thiazole compounds as protein kinase inhibitors” (NATIONAL HEALTH RESEARCH INSTITUTES, priority 2020, dated 2022)", "key": {"[1]": {"test_system": "BaF3/FLT3-ITD-D835Y cells", "test": "MTS cell viability assay, BaF3/FLT3-ITD-D835Y", "type": "cell-based, murine", "details": "Mus musculus, 72 h", "from_the_text": "(§1) MV4:11, BaF3 and HEK293T cell lines were obtained from American Type Culture Collection (ATCC, Manassas, Va., USA). MOLM-13 cell line was purchased from the Deutsche Sammlung von Microorganismen and Zellkulturen GmbH (DSMZ, Braunschweig, Germany). The GIST-T1 cell line was obtained from COSMO BIO CO., LTD (Tokyo, Japan). The GIST-T1, MOLM-13, MV4:11, BaF3, BaF3/FLT3-D835Y, BaF3/FLT3-ITD-F691L and BaF3/FLT3-ITD-D835Y cells were maintained in RPMI 1640 medium supplemented with 10% fetal bovine serum (FBS), 10 U/mL penicillin, and 100 μg/mL streptomycin at 37° C. and 5% CO2. The kasumin-1 cells were cultured in RPMI 1640 medium supplemented with 20% fetal bovine serum (FBS), 1 mM Hepes, 1 mM sodium pyruvate, 10 U/ml penicillin, and 100 μg/ml streptomycin. The HEK293T and FLT3-transfected HEK293T cells were cultured in DMEM (Invitrogen, USA) medium with 10% FBS fetal bovine serum. […]\n(§2) Cell viability assay was performed by seeding 1×10^4 cells (MOLM-13, MV4:11, BaF3, BaF3/FLT3-D835Y, BaF3/FLT3-ITD-D835Y and BaF3/FLT3-ITD-F691L) per well in a 96-well culture plate. […] The viable cells were quantitated using the CellTiter 96 AQueous MTS method (Promega, Madison, Wis., USA) according to the manufacturer's recommended protocol. The results were determined by measuring the absorbance at 490 nm using a plate reader (Victor2; PerkinElmer, Shelton, Conn., USA). […]"}, "[2]": {"test_system": "MV4:11 cells", "test": "MTS cell viability assay, MV4:11", "type": "cell-based", "details": "Homo sapiens, MV4-11, 72 h", "from_the_text": "as §1, §2"}, "[3]": {"target": "T1, GST-FLT3-KD WT (FLT3 kinase catalytic domain) (Homo sapiens, UniProt P36888)", "T1 construct": "containing the FLT3 kinase catalytic domain (residues Y567-5993); GST; made in house; host or cells: Sf9 insect cells (baculovirus, pBac-PAK8-GST-FLT3-KD plasmid)", "T1 sequence (P36888 567-993 limits assumed)": "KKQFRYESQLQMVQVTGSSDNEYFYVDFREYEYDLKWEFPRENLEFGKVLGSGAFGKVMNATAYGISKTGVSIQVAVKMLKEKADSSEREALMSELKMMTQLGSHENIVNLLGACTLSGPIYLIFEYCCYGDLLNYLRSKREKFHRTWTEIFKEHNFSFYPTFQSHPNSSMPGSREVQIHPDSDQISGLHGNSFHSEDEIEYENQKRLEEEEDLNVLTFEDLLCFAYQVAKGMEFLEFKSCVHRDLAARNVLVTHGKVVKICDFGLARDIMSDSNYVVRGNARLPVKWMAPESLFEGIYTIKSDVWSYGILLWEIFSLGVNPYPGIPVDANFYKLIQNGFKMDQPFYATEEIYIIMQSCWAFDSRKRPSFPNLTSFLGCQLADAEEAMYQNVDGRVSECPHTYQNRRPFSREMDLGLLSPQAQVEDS", "test": "FLT3 WT Kinase-Glo assay", "type": "biochemical", "details": "1 μM ATP, 30° C., 4 h; read-out: IC50, inhibiting FLT3 activity", "procedure": "A study was carried out as follows to test compound 1 HCl salt prepared according to EXAMPLE 1 in inhibiting FLT3 activity.\nGST-FLT3-KD^WT containing the FLT3 kinase catalytic domain (residues Y567-5993) was expressed in Sf9 insect cells transfected the baculovirus containing pBac-PAK8-GST-FLT3-KD plasmid. An FLT3^WT Kinase-Glo assay was carried out in 96-well plates at 30° C. for 4 h to test compound in a final volume of 50 μL including the following components: 75 ng GST-FLT3-KD^WT proteins, 25 mM HEPES, pH 7.4, 4 mM MnCl2, 10 mM MgCl2, 2 mM DTT, 0.02% Triton X-100, 0.1 mg/mL bovine serum albumin, 25 μM Her2 peptide substrate, 0.5 mM Na3VO4, and 1 μM ATP. Following incubation, 50 μL Kinase-Glo Plus Reagent (Promega, Madison, Wis., USA) was added to each well and the mixture was incubated at 25° C. for 20 min. A 70-μL aliquot of each reaction mixture was transferred to a black microtiter plate and the luminescence was measured on Wallac Vector 1420 multilabel counter (PerkinElmer, Shelton, Conn., USA)."}, "[4]": {"test_system": "GIST48 cells", "test": "Cell proliferation assay (methylene blue), GIST48", "type": "cell-based", "details": "Homo sapiens, GIST48, 120 h", "procedure": "(§3) GIST882, GIST48 and GIST430 cells were all cultured in incubators maintained at 37° C. and 5% CO2. GIST882 was cultured in RPMI-1640 supplemented with 20% fetal bovine serum (FBS). GIST48 was cultured with F10 supplemented with 20% FBS, 0.5% Mito, serum extender (BD Bioscience, 355006) and 1% pituitary extract bovine (BD Bioscience 354123). GIST430 was cultured in IMDM supplemented with 20% FBS. GIST882, GIST430 and GIST48 cells were provided by Dr. Jonathan A. Fletcher (Harvard Medical School, US).\n(§4) GIST cells (4×10^4) were treated with different dosage of compounds. The treated GIST882 cells were incubated for 144 h and GIST48 and GIST430 cells were incubated for 120 h at 37° C. in 5% CO2. Cell proliferation was determined by incubating the cells with methylene blue (Clontech, CA, US) for 1 hour. The absorbance was measured at 450 nm using SpectraMax M5 microplate reader (Molecular Devices, US)."}, "[5]": {"test_system": "BaF3/FLT3-D835Y cells", "test": "MTS cell viability assay, BaF3/FLT3-D835Y", "type": "cell-based, murine", "details": "Mus musculus, 72 h", "from_the_text": "as §1, §2"}, "[6]": {"test_system": "Kasumi-1 xenografts", "test": "In vivo efficacy study on Kasumi-1 xenografts", "design": "species or system SCID male mice", "details": "days 1-5 and 8-12; for Day 18 Tumor Size: control 880"}, "[7]": {"test_system": "GIST430 cells", "test": "Cell proliferation assay (methylene blue), GIST430", "type": "cell-based", "details": "Homo sapiens, GIST430, 120 h", "procedure": "as §3, §4"}, "[8]": {"test_system": "GIST882 cells", "test": "Cell proliferation assay (methylene blue), GIST882", "type": "cell-based", "details": "Homo sapiens, GIST882, 144 h", "procedure": "as §3, §4"}, "[9]": {"target": "T2, human c-KIT (residues T544-V976) (Homo sapiens, UniProt P10721)", "T2 construct": "human c-KIT (residues T544-V976); His (N); made in house; host or cells: baculovirus-insect cell expression system (printed '519', evidently Sf9)", "T2 sequence (P10721 544-976)": "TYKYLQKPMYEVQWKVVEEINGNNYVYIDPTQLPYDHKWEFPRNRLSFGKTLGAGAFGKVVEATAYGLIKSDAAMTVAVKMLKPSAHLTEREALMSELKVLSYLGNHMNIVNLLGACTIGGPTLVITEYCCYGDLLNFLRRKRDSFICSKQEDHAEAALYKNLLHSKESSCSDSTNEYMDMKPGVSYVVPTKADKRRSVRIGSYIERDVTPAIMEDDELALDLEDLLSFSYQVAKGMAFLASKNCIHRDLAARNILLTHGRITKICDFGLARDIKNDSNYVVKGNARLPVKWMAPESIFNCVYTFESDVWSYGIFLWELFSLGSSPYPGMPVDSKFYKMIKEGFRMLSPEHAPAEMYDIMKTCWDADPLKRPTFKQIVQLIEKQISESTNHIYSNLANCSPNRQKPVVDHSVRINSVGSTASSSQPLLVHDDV", "test": "c-Kit ADP Kinase-Glo assay", "type": "biochemical", "details": "20 μM ATP, 30° C., 150 mins; read-out: IC50, inhibiting c-Kit activity", "procedure": "A study was carried out as follows to test compound 1 HCl salt prepared according to EXAMPLE 1 in inhibiting c-Kit activity.\nThe N-terminal His-tagged human c-KIT (residues T544-V976) recombinant proteins, expressed in 519 baculovirus-insect cell expression systems, were purified for c-KIT ADP Kinase-Glo assay. A c-Kit-ADP Kinase-Glo assay was carried out in 96-well plates at 30° C. for 150 mins with a final volume of 10 μL, including 40 mM Tris pH 7.4, 20 mM MgCl2, 2 mM MnCl2, 2 mM DTT, 0.01% BSA, 20 μM ATP, 20 μM poly(Glu,Tyr) 4:1 peptide, 0.1 mM Na3VO4, 250 ng of recombinant c-Kit proteins, and a tested compound at the indicated concentration. The reactions were stopped by the addition of 5 μL ADP-Glo™ Reagent (Promega, Madison, Wis., USA) at 25° C. with 40 min incubation, followed by 10 μL of kinase detection reagent for a further 30 min. Finally, a […] aliquot of each reaction mixture was transferred to a black microtiter plate and the luminescence was measured on Wallac Vector 1420 multilabel counter (Perkin-Elmer, Shelton, Conn., USA)."}, "[10]": {"test_system": "MOLM-13 cells", "test": "MTS cell viability assay, MOLM-13", "type": "cell-based", "details": "Homo sapiens, MOLM-13, 72 h", "from_the_text": "as §1, §2"}, "[11]": {"test_system": "BaF3 cells (IL3 dependent pro-B cell line)", "test": "MTS cell viability assay, BaF3 + IL3", "type": "cell-based, murine", "details": "Mus musculus; BaF3 + IL3, 72 h", "from_the_text": "as §1, §2"}, "[12]": {"test_system": "BaF3/FLT3-ITD-F691L cells", "test": "MTS cell viability assay, BaF3/FLT3-ITD-F691L", "type": "cell-based, murine", "details": "Mus musculus, 72 h", "from_the_text": "as §1, §2"}, "[13]": {"test_system": "GIST-T1 cells", "test": "MTS cell viability assay, GIST-T1", "type": "cell-based", "details": "Homo sapiens, GISTT1, 72 h", "from_the_text": "as §1, §2"}}, "note": "pIC50: −log10 of the molar value. Where a name gives a salt, the structure may show the parent alone.", "data": [{"smiles": "Cc1nc(Nc2ncc(-c3ccncc3)s2)cc(N2CCNCC2)n1", "note": "[Compound 1 HCl salt, 2-Methyl-6-(piperazin-1-yl)-N-[5-(pyridine-4-yl)-1,3-thiazol-2-yl]pyrimidin-4-amine dihydrochloride]", "values": [{"measurement": "GI50", "setting": "[1]", "result": 53, "unit": "nM"}, {"measurement": "GI50", "setting": "[2]", "result": 1.3, "unit": "nM"}, {"measurement": "pIC50", "setting": "[3]", "result": "> 7.00"}, {"measurement": "GI50", "setting": "[4]", "result": 20, "unit": "nM"}, {"measurement": "GI50", "setting": "[5]", "result": 14, "unit": "nM"}, {"measurement": "Body Weight Loss", "setting": "[6]; 10 mg/kg oral", "result": "No"}, {"measurement": "Mortality (n = 6)", "setting": "[6]; 10 mg/kg oral", "result": "0/6"}, {"measurement": "Day 18 Tumor Size", "setting": "[6]; 10 mg/kg oral", "result": 700, "unit": "mm^3"}, {"measurement": "Body Weight Loss", "setting": "[6]; 50 mg/kg oral", "result": "No"}, {"measurement": "Mortality (n = 6)", "setting": "[6]; 50 mg/kg oral", "result": "0/6"}, {"measurement": "Day 18 Tumor Size", "setting": "[6]; 50 mg/kg oral", "result": 80, "unit": "mm^3"}, {"measurement": "GI50", "setting": "[7]", "result": 33, "unit": "nM"}, {"measurement": "GI50", "setting": "[8]", "result": 8, "unit": "nM"}, {"measurement": "pIC50", "setting": "[9]", "result": "> 7.00"}, {"measurement": "GI50", "setting": "[10]", "result": 2.9, "unit": "nM"}, {"measurement": "GI50", "setting": "[11]", "result": 2580, "unit": "nM"}, {"measurement": "GI50", "setting": "[12]", "result": 95, "unit": "nM"}, {"measurement": "GI50", "setting": "[13]", "result": 2.3, "unit": "nM"}]}]}
